Measurements from paper PMC4774911, “Biochemical Screening of Five Protein Kinases from Plasmodium falciparum against 14,000 Cell-Active Compounds” (PLoS ONE, 2016).
“And” between values parts separate entries of the source, which are not always exact repeats. Equal entries are not always repeated.

Key:
Experiment in all cases: biochemical
Parameters in all cases: endogenous in cells; host or cells: K562 cell extract; species or system K562 (extract); replicate k of n = 2 (each experiment ID is one independent experiment; two experiment IDs per compound)
Details in all cases: read-out: KDapp
PIM1 = PIM1 (Homo sapiens, UniProt P11309)
Sequence of PIM1 (P11309 whole entry): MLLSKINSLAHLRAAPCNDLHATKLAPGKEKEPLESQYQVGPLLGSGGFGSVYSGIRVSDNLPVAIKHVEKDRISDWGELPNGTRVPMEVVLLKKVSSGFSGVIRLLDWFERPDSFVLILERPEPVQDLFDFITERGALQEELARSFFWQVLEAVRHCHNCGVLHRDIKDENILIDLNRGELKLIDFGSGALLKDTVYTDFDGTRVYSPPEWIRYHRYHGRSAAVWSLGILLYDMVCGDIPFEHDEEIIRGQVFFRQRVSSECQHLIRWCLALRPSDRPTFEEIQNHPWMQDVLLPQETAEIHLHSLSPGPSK

BTK = BTK (Homo sapiens, UniProt Q06187)
Sequence of BTK (Q06187 whole entry): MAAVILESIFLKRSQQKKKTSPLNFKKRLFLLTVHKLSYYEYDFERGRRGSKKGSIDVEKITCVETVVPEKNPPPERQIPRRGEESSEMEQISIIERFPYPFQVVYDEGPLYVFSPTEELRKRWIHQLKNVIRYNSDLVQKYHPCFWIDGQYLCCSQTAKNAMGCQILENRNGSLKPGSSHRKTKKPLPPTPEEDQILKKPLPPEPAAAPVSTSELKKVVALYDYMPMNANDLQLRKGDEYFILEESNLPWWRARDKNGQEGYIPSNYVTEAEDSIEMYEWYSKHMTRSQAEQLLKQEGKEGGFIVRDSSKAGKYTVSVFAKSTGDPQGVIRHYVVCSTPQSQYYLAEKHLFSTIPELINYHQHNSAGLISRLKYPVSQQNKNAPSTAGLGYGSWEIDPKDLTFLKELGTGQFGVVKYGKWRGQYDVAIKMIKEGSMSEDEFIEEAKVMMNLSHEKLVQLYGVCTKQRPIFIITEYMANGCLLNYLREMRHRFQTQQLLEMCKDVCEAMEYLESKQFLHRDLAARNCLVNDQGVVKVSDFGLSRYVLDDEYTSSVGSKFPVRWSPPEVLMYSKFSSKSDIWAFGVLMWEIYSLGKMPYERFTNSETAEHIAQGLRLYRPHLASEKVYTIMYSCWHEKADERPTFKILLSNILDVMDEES

ULK3 = target: T1, ULK3 (Homo sapiens, UniProt Q6PHR2)
T1 sequence (Q6PHR2 1-472): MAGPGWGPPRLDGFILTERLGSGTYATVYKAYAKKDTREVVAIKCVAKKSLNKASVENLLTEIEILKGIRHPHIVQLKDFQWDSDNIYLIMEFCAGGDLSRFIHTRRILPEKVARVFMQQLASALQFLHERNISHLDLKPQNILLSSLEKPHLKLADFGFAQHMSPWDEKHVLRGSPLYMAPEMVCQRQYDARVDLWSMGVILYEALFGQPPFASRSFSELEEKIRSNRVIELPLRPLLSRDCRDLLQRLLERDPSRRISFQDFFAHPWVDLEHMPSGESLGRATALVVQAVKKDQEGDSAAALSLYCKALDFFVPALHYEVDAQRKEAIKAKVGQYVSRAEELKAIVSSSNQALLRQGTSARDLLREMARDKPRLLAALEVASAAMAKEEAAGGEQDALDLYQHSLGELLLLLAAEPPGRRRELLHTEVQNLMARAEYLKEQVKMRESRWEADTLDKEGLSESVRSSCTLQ

CHEK1 = target: T2, CHEK1 (Homo sapiens, UniProt O14757)
T2 sequence (O14757 1-476): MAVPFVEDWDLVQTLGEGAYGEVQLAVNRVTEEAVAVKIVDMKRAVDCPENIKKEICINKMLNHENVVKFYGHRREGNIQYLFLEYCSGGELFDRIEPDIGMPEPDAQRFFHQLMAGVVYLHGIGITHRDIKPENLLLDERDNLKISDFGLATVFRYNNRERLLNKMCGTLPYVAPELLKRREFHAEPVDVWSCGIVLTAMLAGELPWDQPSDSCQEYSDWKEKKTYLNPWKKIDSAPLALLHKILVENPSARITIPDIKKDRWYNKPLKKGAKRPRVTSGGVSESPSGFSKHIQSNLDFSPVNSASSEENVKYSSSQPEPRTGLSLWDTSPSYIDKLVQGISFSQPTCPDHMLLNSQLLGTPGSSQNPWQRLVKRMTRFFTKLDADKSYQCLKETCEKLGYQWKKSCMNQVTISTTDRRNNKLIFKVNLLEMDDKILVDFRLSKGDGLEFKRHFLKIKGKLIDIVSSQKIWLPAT

NTRK1 = NTRK1 (Homo sapiens, UniProt P04629)
Sequence of NTRK1 (P04629 whole entry): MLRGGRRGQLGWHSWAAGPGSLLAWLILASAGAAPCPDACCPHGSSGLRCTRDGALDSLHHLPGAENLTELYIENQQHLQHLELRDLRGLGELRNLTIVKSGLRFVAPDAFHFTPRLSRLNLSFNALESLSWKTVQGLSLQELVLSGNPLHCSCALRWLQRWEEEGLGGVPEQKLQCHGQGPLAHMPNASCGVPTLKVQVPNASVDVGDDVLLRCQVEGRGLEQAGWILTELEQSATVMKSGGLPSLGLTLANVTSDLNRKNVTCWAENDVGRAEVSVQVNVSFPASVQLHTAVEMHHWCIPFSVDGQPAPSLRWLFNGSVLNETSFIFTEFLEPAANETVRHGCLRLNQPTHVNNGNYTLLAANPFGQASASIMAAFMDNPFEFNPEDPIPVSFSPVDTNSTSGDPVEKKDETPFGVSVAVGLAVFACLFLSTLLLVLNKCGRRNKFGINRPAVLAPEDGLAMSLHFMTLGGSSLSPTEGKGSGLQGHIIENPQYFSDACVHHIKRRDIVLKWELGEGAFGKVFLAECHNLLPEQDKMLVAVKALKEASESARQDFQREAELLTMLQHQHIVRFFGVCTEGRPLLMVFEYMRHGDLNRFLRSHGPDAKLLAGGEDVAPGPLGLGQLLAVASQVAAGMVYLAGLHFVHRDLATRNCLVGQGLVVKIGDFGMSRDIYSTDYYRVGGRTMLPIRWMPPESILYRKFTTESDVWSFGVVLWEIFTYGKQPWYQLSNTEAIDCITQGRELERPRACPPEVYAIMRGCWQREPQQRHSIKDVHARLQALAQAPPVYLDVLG

PLK4 = target: T3, PLK4 (Homo sapiens, UniProt O00444)
T3 sequence (O00444 1-970): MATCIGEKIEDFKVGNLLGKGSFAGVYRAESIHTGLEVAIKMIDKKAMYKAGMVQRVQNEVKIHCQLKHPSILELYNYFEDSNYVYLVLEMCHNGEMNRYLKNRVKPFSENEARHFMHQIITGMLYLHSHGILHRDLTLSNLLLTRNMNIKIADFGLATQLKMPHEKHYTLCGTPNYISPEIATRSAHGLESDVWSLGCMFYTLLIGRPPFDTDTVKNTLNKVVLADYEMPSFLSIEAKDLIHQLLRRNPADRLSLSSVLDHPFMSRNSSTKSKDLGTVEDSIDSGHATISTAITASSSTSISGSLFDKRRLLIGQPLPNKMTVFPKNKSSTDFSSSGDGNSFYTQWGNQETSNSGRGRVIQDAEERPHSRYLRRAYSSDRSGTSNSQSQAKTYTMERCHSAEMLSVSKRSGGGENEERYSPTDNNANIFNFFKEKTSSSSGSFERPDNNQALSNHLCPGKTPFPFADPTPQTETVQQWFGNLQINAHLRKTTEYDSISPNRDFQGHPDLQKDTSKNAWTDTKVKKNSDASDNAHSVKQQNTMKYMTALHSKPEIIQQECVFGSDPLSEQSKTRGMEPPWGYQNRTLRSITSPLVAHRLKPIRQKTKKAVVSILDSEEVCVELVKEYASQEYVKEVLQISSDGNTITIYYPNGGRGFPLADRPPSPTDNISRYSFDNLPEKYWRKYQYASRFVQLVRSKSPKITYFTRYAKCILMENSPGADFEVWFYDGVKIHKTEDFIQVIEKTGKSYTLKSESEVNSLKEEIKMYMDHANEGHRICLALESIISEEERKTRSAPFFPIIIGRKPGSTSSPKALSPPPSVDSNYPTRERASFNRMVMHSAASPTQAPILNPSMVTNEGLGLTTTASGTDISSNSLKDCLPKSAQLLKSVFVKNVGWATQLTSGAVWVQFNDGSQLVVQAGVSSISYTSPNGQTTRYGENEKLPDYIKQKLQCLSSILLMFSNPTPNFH

## CN1CCN(c2ccc(Nc3ncc(C#N)c(Nc4ccccc4C(N)=O)n3)cc2)CC1.Cl [TCMDC-134116]
PIM1
  Kd: 3560 nM and 2970 nM
BTK
  Kd: 207 nM and 231 nM
ULK3
  Kd: 16.4 nM and 25.9 nM
CHEK1
  Kd: 92 nM
NTRK1
  Kd: 1030 nM and 701 nM
PLK4
  Kd: 53.9 nM and 69.2 nM
